Laboratory results reported in patent US12517136B2, “Il-17F-specific capture agents, compositions, and methods of using and making” (California Institute of Technology, priority 2015, dated 2026).
Like-named read-outs stand apart in the source and are kept apart here. Bridge positions count the residues as written; N and C are the ends. Square brackets hold non-standard residues; d marks the D form. Triazole bridges read from a SMILES are 1,4-linked. Peptide text beside a SMILES is read from it. * marks the point of attachment. ξ: configuration not given here. X2 = O=C(CCCC[C@@H]1SC[C@@H]2NC(=O)N[C@@H]21)NCCCOCCOCCOCCCN*; X1 = O=C(CCCCC1SC[C@H]2NC(=O)N[C@@H]12)NCCCOCCOCCOCCCN*; Biotin = O=C1N[C@H]2[C@H](CS[C@H]2CCCCC(=O)*)N1; Lys(N3) = [N-]=[N+]=NCCCC[C@H](N)C(=O)O; Thr(3ξ) = CC(O)[C@H](N)C(=O)O; AEEEA = NCCOCCOCCOCC(=O)O; Pra = C#CC[C@H](N)C(=O)O

Experiments:
[1] = target: T1, IL-17F (Homo sapiens, UniProt Q96PD4); assay: KD of PCC macrocycles and biligands against IL-17F (FIG. 12C); format: binding
T1 sequence (Q96PD4 31-163): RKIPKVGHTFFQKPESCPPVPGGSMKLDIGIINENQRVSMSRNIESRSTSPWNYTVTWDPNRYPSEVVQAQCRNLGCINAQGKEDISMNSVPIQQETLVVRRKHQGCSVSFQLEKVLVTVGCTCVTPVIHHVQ

[2] = tested on: full-length His-tagged IL-17F and IL-17A proteins; assay: Point ELISA (IL-17F vs. IL-17A selectivity assay); format: binding, human; details: figure legends FIG. 2B, 4B, 4C
Protocol: Point ELISA (IL-17F vs. IL-17A selectivity assay). A black 96-well NeutrAvidin Coated High Binding Capacity plate (15510, Pierce) was coated with 2 μM macrocyclic peptide ligand in TBS (pH 7.6) for 2 h at room temperature. The plate was aspirated and then washed with TBS (5×) and Wash Buffer (0.05% (v/v) Tween-20 in PBS, 1×). Full-length His-tagged IL-17F (ab167911, Abcam) and IL-17A (ab166882, Abcam) proteins were prepared at 200 and 50 nM in Wash Buffer and incubated in the designated microwells for 90 min at room temperature. Microwells were aspirated and subsequently washed with Wash Buffer (10×). To detect the bound IL-17F and IL-17A proteins, Alkaline Phosphatase (AP)-conjugated Anti-6×His Tag® antibody [HIS-1] (ab49746, Abcam) was prepared at 1:10,000 dilution and added to the microwells for 1 h at room temperature. The plate was aspirated and washed with Wash Buffer (5×). AttoPhos® AP Fluorescent Substrate System (S1000, Promega) was employed to develop the microwells. Using an excitation wavelength of 430 nm, fluorescent emission at 535 nm was recorded by Beckman Coulter DTX880 photometer.
(§1) For these assays, the full-length His-tagged IL-17F and IL-17A proteins were captured using the macrocyclic peptide ligands immobilized on a NeutrAvidin-coated plate.
Point ELISA (IL-17F vs. IL-17A selectivity assay). A black 96-well NeutrAvidin Coated High Binding Capacity plate (15510, Pierce) was coated with 2 μM macrocyclic peptide ligand in TBS (pH 7.6) for 2 h at room temperature. Biotinylated monoclonal anti-IL17F (TA319597, Origene) was coated at 4 μg/mL in TBS as a control. The plate was aspirated and then washed with TBS (5×) and Wash Buffer (0.05% (v/v) Tween-20 in PBS, 1×). Full-length His-tagged IL-17F (ab167911, Abcam) and IL-17A (ab166882, Abcam) proteins were prepared at 100 nM in Wash Buffer and incubated in the designated microwells for 90 min at room temperature. Microwells were aspirated and subsequently washed with Wash Buffer (10×). To detect the bound IL-17F and IL-17A proteins, Alkaline Phosphatase (AP)-conjugated Anti-6×His Tag® antibody [HIS-1] (ab49746, Abcam) was prepared at 1:10,000 dilution and added to the microwells for 1 h at room temperature. The plate was aspirated and washed with Wash Buffer (5×). AttoPhos® AP Fluorescent Substrate System (S1000, Promega) was employed to develop the microwells. Using an excitation wavelength of 430 nm, fluorescent emission at 535 nm was recorded by Beckman Coulter DTX880 photometer.
as §1

[3] = tested on: His-tagged IL-17F epitopes; assay: Assay to determine orientation of macrocycle binding to IL-17F Epitope1 (point ELISA); details: for binding to epitope scrambled N-terminal to the click handle: epitope 2 μM, no-epitope background subtracted; for binding to the His-tagged IL-17F epitopes (overall, preferred sequence): three His-tagged epitopes, 2 μM
Protocol: Assay to determine orientation of macrocycle binding to IL-17F Epitope1. A black 96-well NeutrAvidin Coated High Binding Capacity plate (15510, Pierce) was coated with 2 μM macrocyclic peptide ligand in TBS (pH 7.6) for 2 h at room temperature. Biotinylated monoclonal anti-IL17F (TA319597, Origene) was coated at 4 μg/mL in TBS as a control. The plate was aspirated and then washed with TBS (5×) and Wash Buffer (0.05% (v/v) Tween-20 in PBS, 1×). Chemically synthesized His-tagged IL-17F epitopes were prepared at 2 μM in Wash Buffer and incubated in the designated microwells for 90 min at room temperature. Wash Buffer without epitope was added as a control. Microwells were aspirated and subsequently washed with Wash Buffer (10×). To detect the bound IL-17F epitopes, Alkaline Phosphatase (AP)-conjugated Anti-6×His Tag® antibody [HIS-1] (ab49746, Abcam) was prepared at 1:10,000 dilution and added to the microwells for 1 h at room temperature. The plate was aspirated and washed with Wash Buffer (5×). AttoPhos® AP Fluorescent Substrate System (S1000, Promega) was employed to develop the microwells. Using an excitation wavelength of 430 nm, fluorescent emission at 535 nm was recorded by Beckman Coulter DTX880 photometer. Data are shown after subtraction of the no-epitope background.
For this experiment, the IL-17F Epitope1 was re-synthesized with a His6 assay handle and C48S substitution instead of a click handle. Two additional His-tagged IL-17F epitopes were synthesized to contain strategic scrambling of the sequences either N-terminal or C-terminal to C48S. Point ELISAs for the three His-tagged IL-17F epitopes were conducted against the immobilized macrocyclic peptide ligands.

[4] = target: Plasmodium falciparum Histidine Rich Protein-2 (Pf.HRP-2) (Plasmodium falciparum, UniProt P05227); format: binding
[5] = target: T1, IL-17F; assay: Sandwich ELISA: immobilized macrocyclic peptide ligand captures full-length His-tagged IL-17F; format: binding; set-up: Full-length His-tagged IL-17F protein (ab167911, Abcam); purchased Abcam ab167911
Protocol: Sandwich ELISA. A black 96-well NeutrAvidin Coated High Binding Capacity plate (15510, Pierce) was coated with 2 μM macrocyclic peptide ligand in TBS (25 mM Tris-HCl, 150 mM NaCl, pH 7.6) for 2 h at room temperature. Biotinylated monoclonal anti-IL17F (TA319597, Origene) was coated at 4 μg/mL in TBS as a control. The plate was aspirated and then washed with TBS (5×) and Wash Buffer (0.05% (v/v) Tween-20 in PBS, 1×). Full-length His-tagged IL-17F protein (ab167911, Abcam) was serially diluted in Wash Buffer (from 800 to 0 nM) and incubated in the designated microwells for 90 min at room temperature. Microwells were aspirated and subsequently washed with Wash Buffer (10×). […] (ab49746, Abcam) was prepared at 1:10,000 dilution and added to the microwells for 1 h at room temperature. The plate was aspirated and washed with Wash Buffer (5×). AttoPhos® AP Fluorescent Substrate System (S1000, Promega) was employed to develop the microwells. Using an excitation wavelength of 430 nm, fluorescent emission at 535 nm was recorded by Beckman Coulter DTX880 photometer. Titration curves were fit using a four-parameter regression curve fitting program (Origin 8.5) to determine EC50 values.
For these assays, a dilution series of full-length His-tagged IL-17F protein was captured using the macrocyclic peptide ligands immobilized on a NeutrAvidin-coated plate.
Sandwich ELISA. […]

Q: `C[C@@H]1NC(=O)[C@H](CCCNC(=N)N)NC(=O)[C@H](CCCNC(=N)N)NC(=O)[C@@H](NC(=O)COCCOCCOCCNC(=O)[C@@H]2CCCCn3cc(nn3)C[C@H](NC(=O)COCCOCCOCCNC(=O)CCCC[C@@H]3SC[C@@H]4NC(=O)N[C@@H]43)C(=O)N[C@@H](CCCNC(=N)N)C(=O)N[C@@H](CO)C(=O)N[C@@H](Cc3ccc(O)cc3)C(=O)N[C@@H](CC(N)=O)C(=O)N[C@@H](CCCCN)C(=O)N2)Cc2cn(nn2)CCCC[C@@H](C(N)=O)NC(=O)[C@H](CO)NC(=O)[C@H]([C@@H](C)O)NC1=O` [Cy(RSYNK)-PEG3-Cy(RRATS), Biotin-PEG3-Cy(RSYNK) (SEQ ID NO:28)-PEG3-Cy(RRATS) (SEQ ID NO: 9)] ({Biotin-AEEEA}-[Pra]RSYNK[Lys(N3)][AEEEA][Pra]RRATS[Lys(N3)]-NH2; triazole 1-7, 9-15) was tested. Which Kd [1] did it give?
A: 0.25 nM

Q: And the “improvement in affinity relative to the individual PCC macrocyclic ligands” value [1]?
A: > 100 fold

Q: `NCCCC[C@@H]1NC(=O)[C@H](CCC(N)=O)NC(=O)[C@@H](N)Cc2cn(nn2)CCCC[C@@H](C(=O)NCCCOCCOCCOCCCNC(=O)CCCC[C@@H]2SC[C@@H]3NC(=O)N[C@@H]32)NC(=O)[C@@H]2CCCN2C(=O)CNC(=O)[C@H](Cc2c[nH]cn2)NC1=O` [Cy(QKHGP), Cy(QKHGP) (SEQ ID NO:15)-PEG3-biotin] (H-[Pra]QKHGP[Lys(N3)]-X2; triazole 1-7) was tested. Which “preferential binding, IL-17F vs IL-17A (in words)” value [2] did it give?
A: preferential binding to IL-17F

Q: What about the “preferential binding, IL-17F vs IL-17A (in words)” value ([2]; listed as QKHGP) of the same molecule?
A: preferential binding to IL-17F or IL-17A

Q: What does the source list for `CC(O)[C@@H]1NC(=O)[C@H](C)NC(=O)[C@H](CCCNC(=N)N)NC(=O)[C@H](CCCNC(=N)N)NC(=O)[C@@H](N)Cc2cn(nn2)CCCC[C@@H](C(=O)NCCCOCCOCCOCCCNC(=O)CCCCC2SC[C@H]3NC(=O)N[C@@H]23)NC(=O)[C@H](CO)NC1=O` (stereo partly shown) [Cy(RRATS), Cy(RRATS) (SEQ ID NO:9)-PEG3-biotin] (H-[Pra]RRA[Thr(3ξ)]S[Lys(N3)]-X1; triazole 1-7)?
A: binding to epitope scrambled N-terminal to the click handle [3]: Binding was destroyed; binding to the His-tagged IL-17F epitopes (overall, preferred sequence) [3]: preferential binding to the sequence FFQKPES; preferential binding, IL-17F vs IL-17A (in words) [2]: preferential binding to IL-17F; preferential binding, IL-17F vs IL-17A (in words) ([2]; listed as RRATS): preferential binding to IL-17F or IL-17A

Q: How did the “binding to epitope scrambled N-terminal to the click handle” value [3] turn out when `C[C@@H]1NC(=O)[C@H](CCCNC(=N)N)NC(=O)[C@H](CCCNC(=N)N)NC(=O)[C@@H](N)Cc2cn(nn2)CCCC[C@@H](C(=O)NCCCOCCOCCOCCCNC(=O)CCCCC2SC[C@H]3NC(=O)N[C@@H]23)NC(=O)[C@H](CO)NC(=O)[C@H](CCC(N)=O)NC1=O` (stereo partly shown) [Cy(RRAQS), Cy(RRAQS) (SEQ ID NO:10)-PEG3-biotin] (H-[Pra]RRAQS[Lys(N3)]-X1; triazole 1-7) was run?
A: Binding was destroyed

Q: What about the “binding to the His-tagged IL-17F epitopes (overall, preferred sequence)” value [3] of the same molecule?
A: preferential binding to the sequence FFQKPES

Q: What about the “preferential binding, IL-17F vs IL-17A (in words)” value [2] of the same molecule?
A: preferential binding to IL-17F

Q: Which “preferential binding, IL-17F vs IL-17A (in words)” value [2] does the source give for `C[C@@H](O)[C@@H]1NC(=O)[C@@H](N)Cc2cn(nn2)CCCC[C@@H](C(=O)NCCCOCCOCCOCCCNC(=O)CCCC[C@@H]2SC[C@@H]3NC(=O)N[C@@H]32)NC(=O)[C@@H]2CCCN2C(=O)CNC(=O)[C@H](Cc2c[nH]cn2)NC(=O)[C@H](CCCCN)NC1=O` [Cy(TKHGP), Cy(TKHGP) (SEQ ID NO:16)-PEG3-biotin] (H-[Pra]TKHGP[Lys(N3)]-X2; triazole 1-7) here?
A: preferential binding to IL-17F

Q: `N=C(N)NCCC[C@@H]1NC(=O)[C@H](Cc2ccc(O)cc2)NC(=O)[C@H](Cc2ccc(O)cc2)NC(=O)[C@H](CCCCN)NC(=O)[C@H](Cc2ccc(O)cc2)NC(=O)[C@@H](N)Cc2cn(nn2)CCCC[C@@H](C(N)=O)NC1=O` [Cy(YKYYR), Cy(YKYYR) (SEQ ID NO:29)] (H-[Pra]YKYYR[Lys(N3)]-NH2; triazole 1-7) was tested. Which EC50 [4] did it give?
A: 220 nM

Q: Which EC50 ([5]; 2 μM PEG3-biotin ligand on NeutrAvidin plate, His-tagged IL-17F 800 to 0 nM) does the source give for `CC1N[C@@H](CCCCN)C(=O)N[C@H](C(N)=O)CCCCn2cc(nn2)C[C@H](NC(=O)COCCOCCOCCNC(=O)CCCC[C@@H]2SC[C@@H]3NC(=O)N[C@@H]32)C(=O)N[C@@H](CCCNC(=N)N)C(=O)N[C@@H](CO)C(=O)N[C@@H](Cc2ccc(O)cc2)C(=O)N[C@H]1CC(N)=O` (stereo partly shown) [Cy(RSYNK), Biotin-PEG3-Cy(RSYNK) (SEQ ID NO:28)] here?
A: 15 ± 5 nM

Q: And the “binding affinity compared in words (ligand vs biotinylated monoclonal anti-IL17F)” value ([5]; antibody coated at 4 μg/mL)?
A: exceeds the binding affinity of the similarly assayed biotinylated monoclonal anti-IL17F

Q: And the Kd ([1]; read-out: KD against IL-17F)?
A: 15 nM

Q: And the “preferential binding, IL-17F vs IL-17A (in words)” value [2]?
A: preferential binding to IL-17F

Q: What about the “preferential binding, IL-17F vs IL-17A (in words)” value ([2]; listed as RSYNK) of the same molecule?
A: preferential binding to IL-17F or IL-17A

Q: `NCCCC[C@@H]1NC(=O)[C@H](CCCCN)NC(=O)[C@@H](NC(=O)COCCOCCOCCNC(=O)CCCC[C@@H]2SC[C@@H]3NC(=O)N[C@@H]32)Cc2cn(nn2)CCCC[C@@H](C(N)=O)NC(=O)[C@@H]2CCCN2C(=O)[C@H](Cc2c[nH]c3ccccc23)NC(=O)CNC1=O` [Cy(KKGWP), Biotin-PEG3-Cy(KKGWP) (SEQ ID NO:23)] ({Biotin-AEEEA}-[Pra]KKGWP[Lys(N3)]-NH2; triazole 1-7) was tested. Which “preferential binding, IL-17F vs IL-17A (in words)” value [2] did it give?
A: preferential binding to IL-17F
